{"source": "patent US12662707B2", "about": "“MYC amplification drives resistance to pan-RAS inhibitors in pancreatic cancer” (The Trustees of Columbia University in the City of New York, priority 2024, dated 2026)", "tested_on": "796 human tumor cell lines", "test": "PRISM multiplex cell line screening", "format": "cell-based", "conditions": "5 days; relative to the other cell lines of the screen", "description": "The PRISM cell set consisted of 796 cell lines representing more than 45 lineages, which largely overlapped with the Cancer Cell Line Encyclopedia (CCLE) (portals.broadinstitute.org/ccle). Cell lines were grown in RPMI without phenol red, supplemented with 10% or 20% FBS for adherent and suspended lines, respectively. Parental cell lines were stably infected with a unique 24-nucleotide DNA barcode via lentiviral transduction and blasticidin selection. After selection, barcoded cell lines were expanded and subjected to quality control (mycoplasma contamination test, a SNP test for confirming cell line identity, and barcode ID confirmation). Approved cell lines were then pooled (20-25 cell lines per pool) based on doubling time similarity and frozen in assay-ready vials.\nRMC-7977 was added to 384-well plates at 8-point concentration with 3-fold dilutions in triplicate. These assay-ready plates were then seeded with the thawed cell line pools. […]\nEach cell line's unique barcode is located in the 3′UTR of the blasticidin resistance gene and therefore is expressed as mRNA. […] Finally, Luminex beads that recognize the specific barcode sequences in the cell set were hybridized to the PCR products and detected using a Luminex scanner which reports signal as a median fluorescent intensity (MFI). […]", "data": [{"compound": "CCn1c(-c2cc(N3CCN(C4CC4)CC3)cnc2[C@H](C)OC)c2c3cc(ccc31)-c1csc(n1)C[C@H](NC(=O)[C@H]1[C@@H]3COC[C@@H]31)C(=O)N1CCC[C@H](N1)C(=O)OCC(C)(C)C2", "note": "[RMC-7977]", "values": [{"measurement": "sensitivity of human PDAC cell lines in PRISM screen (AUC)", "value": "among the most sensitive"}]}]}
